Tests used:
[1] = molecular target: T1, Histone-lysine N-methyltransferase EHMT2 (Homo sapiens, UniProt Q96KQ7); test: Inhibition of methyl transferase activity of G9a assessed as inhibition of H3K9 methylation by chemiluminescence based oxygen tunneling assay
T1 sequence (Q96KQ7 whole entry): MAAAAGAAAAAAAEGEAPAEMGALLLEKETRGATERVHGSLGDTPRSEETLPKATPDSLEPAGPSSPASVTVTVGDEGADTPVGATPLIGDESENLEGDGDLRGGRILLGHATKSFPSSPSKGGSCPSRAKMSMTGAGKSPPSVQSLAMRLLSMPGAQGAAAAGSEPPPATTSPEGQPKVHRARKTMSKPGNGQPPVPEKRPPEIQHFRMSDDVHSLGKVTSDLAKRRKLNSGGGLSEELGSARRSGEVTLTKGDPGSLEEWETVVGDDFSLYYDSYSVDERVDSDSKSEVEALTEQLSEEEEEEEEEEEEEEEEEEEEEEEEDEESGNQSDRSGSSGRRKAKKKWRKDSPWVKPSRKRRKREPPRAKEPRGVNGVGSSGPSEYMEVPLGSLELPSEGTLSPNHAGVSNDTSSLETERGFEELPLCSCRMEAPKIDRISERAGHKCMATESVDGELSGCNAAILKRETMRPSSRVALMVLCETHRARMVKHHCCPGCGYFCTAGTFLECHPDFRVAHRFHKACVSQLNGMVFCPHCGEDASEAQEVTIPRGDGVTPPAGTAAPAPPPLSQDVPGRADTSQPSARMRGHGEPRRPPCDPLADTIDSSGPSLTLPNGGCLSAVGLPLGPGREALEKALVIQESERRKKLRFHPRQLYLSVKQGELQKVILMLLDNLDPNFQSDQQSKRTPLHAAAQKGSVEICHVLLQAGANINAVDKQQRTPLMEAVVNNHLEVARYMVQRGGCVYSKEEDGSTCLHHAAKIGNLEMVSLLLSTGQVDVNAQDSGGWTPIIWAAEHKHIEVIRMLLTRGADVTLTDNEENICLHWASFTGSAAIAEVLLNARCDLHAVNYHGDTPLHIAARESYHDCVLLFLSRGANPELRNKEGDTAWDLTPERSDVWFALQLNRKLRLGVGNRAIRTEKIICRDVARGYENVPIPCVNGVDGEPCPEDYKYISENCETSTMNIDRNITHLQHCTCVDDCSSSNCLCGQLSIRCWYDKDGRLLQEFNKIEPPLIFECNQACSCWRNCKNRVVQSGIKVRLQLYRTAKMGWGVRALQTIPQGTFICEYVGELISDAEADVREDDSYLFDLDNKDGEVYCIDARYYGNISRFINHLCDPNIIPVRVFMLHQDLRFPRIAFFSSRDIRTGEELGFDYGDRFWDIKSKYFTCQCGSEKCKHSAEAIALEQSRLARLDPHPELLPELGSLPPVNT

[2] = molecular target: T1, Histone-lysine N-methyltransferase EHMT2; test: Activity at methyl transferase activity G9a by enzyme coupled S-adenocylehomocystein detection assay
[3] = molecular target: T2, N-lysine methyltransferase KMT5A (Homo sapiens, UniProt Q9NQR1); test: Activity at methyl transferase activity SET8/preSet7 by enzyme coupled S-adenocylehomocystein detection assay
T2 sequence (Q9NQR1 whole entry): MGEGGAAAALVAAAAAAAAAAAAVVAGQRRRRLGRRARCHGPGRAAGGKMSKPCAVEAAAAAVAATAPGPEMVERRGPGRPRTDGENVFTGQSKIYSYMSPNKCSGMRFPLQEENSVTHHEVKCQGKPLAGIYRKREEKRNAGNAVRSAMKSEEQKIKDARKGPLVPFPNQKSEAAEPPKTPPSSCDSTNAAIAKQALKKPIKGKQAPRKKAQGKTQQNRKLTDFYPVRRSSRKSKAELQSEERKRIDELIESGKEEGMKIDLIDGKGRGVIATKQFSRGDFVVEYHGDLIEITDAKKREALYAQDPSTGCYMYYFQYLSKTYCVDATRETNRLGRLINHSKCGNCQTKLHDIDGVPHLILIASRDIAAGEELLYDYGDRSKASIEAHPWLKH

[4] = molecular target: Protein arginine N-methyltransferase 3 (Homo sapiens, UniProt O60678); test: Activity at methyl transferase activity PRMT3 by enzyme coupled S-adenocylehomocystein detection assay
Protein arginine N-methyltransferase 3, sequence (O60678 whole entry): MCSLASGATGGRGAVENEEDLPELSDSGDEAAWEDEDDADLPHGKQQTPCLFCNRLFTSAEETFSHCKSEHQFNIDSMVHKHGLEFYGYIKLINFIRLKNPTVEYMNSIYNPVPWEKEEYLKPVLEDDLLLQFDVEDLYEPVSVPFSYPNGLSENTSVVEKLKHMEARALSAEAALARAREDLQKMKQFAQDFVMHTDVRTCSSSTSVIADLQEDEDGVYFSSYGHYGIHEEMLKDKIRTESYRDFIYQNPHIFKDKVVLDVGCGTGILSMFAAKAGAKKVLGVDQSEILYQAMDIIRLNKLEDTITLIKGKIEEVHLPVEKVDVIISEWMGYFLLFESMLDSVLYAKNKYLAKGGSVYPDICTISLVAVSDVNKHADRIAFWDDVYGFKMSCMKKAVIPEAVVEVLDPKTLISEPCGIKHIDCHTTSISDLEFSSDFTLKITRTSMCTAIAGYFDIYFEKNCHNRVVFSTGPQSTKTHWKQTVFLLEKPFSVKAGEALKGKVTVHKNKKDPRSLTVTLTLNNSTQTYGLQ

[5] = molecular target: T3, Histone-lysine N-methyltransferase EHMT1 (Homo sapiens, UniProt Q9H9B1); test: Activity at methyl transferase activity GLP by chemiluminescence based oxygen tunneling assay
T3 sequence (Q9H9B1 whole entry): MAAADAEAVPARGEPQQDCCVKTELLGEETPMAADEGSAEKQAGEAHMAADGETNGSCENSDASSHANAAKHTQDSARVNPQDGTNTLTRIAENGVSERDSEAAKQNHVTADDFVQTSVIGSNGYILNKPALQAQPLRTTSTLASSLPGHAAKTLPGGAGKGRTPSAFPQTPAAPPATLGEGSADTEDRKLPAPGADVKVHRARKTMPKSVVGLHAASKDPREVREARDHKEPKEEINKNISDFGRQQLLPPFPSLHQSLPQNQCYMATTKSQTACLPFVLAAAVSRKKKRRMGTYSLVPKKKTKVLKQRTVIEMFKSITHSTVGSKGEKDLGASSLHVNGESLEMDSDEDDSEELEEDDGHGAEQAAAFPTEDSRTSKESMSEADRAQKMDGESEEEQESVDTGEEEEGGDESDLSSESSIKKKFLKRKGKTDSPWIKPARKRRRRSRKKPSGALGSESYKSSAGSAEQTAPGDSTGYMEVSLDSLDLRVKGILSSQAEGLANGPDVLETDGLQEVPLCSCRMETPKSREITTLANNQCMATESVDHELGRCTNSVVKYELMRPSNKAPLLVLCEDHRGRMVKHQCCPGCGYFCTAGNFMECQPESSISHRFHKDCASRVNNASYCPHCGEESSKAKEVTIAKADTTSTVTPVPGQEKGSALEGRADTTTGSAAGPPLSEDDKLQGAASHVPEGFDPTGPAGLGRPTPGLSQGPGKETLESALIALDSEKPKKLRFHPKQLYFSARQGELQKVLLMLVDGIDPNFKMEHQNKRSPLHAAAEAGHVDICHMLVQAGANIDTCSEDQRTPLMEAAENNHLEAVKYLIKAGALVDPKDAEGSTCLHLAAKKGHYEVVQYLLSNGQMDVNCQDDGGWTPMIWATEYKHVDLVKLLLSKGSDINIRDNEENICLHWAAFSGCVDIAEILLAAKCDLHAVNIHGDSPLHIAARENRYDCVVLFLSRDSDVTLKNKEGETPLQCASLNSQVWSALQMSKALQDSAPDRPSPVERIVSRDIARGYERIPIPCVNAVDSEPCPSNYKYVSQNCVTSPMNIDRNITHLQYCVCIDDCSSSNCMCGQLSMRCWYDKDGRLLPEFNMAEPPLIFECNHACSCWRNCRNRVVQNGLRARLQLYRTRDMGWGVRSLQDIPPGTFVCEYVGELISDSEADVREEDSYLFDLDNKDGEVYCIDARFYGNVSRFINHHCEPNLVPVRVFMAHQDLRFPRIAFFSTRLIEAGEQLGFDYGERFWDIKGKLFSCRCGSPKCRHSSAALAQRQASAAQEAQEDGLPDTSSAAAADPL

[6] = Activity at methyl transferase activity JMJD2E by formaldehyde dehydrogenase-coupled assay
[7] = molecular target: T3, Histone-lysine N-methyltransferase EHMT1; test: Activity at methyl transferase activity GLP by enzyme coupled S-adenocylehomocystein detection assay
[8] = molecular target: T4, Histone-lysine N-methyltransferase SETD7 (Homo sapiens, UniProt Q8WTS6); test: Activity at methyl transferase activity SET7/9 by enzyme coupled S-adenocylehomocystein detection assay
T4 sequence (Q8WTS6 whole entry): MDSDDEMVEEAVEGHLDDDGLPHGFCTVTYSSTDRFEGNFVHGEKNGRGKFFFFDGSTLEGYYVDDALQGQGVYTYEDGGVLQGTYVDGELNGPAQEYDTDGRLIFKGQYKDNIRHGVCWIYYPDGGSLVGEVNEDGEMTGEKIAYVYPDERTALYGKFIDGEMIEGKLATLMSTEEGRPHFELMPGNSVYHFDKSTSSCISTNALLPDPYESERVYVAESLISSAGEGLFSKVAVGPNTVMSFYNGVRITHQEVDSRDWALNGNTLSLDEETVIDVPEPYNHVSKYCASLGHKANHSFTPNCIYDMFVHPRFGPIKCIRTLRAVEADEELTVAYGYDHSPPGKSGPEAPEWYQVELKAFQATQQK

Row | IC50 [1] | IC50 [2] | SMILES | other results
1 | > 10 µM | – | CNc1nc(N2CCCN(C)CC2)nc2cc(OC)c(OC)cc12 | –
2 | 0.11 µM | 0.14 µM | COc1cc2c(NC3CCN(C)CC3)nc(N3CCCN(C)CC3)nc2cc1OCCCCN(C)C | –
3 | – | 0.12 µM | CNCCCOc1cc2nc(N3CCCN(C)CC3)nc(NC3CCN(C)CC3)c2cc1OC | –
4 | > 10 µM | – | COCCCCOc1cc2nc(N3CCCN(C)CC3)nc(NC3CCN(C)CC3)c2cc1OC | –
5 | > 10 µM | – | COc1cc2nc(N3CCCN(C)CC3)nc(OC3CCN(C)CC3)c2cc1OC | –
6 | – | 0.91 µM | COc1cc2nc(N3CCCN(C)CC3)nc(NC3CCN(C)C3)c2cc1OC (centres undefined) | –

Second part, the molecule before the results:

Row | SMILES | IC50 [1] | IC50 [2] | other results
7 | COc1cc2c(NC3CCN(C)CC3)nc(N3CCCN(C)CC3)nc2cc1OCCCCCN(C)C | – | 0.095 µM | –
8 | CCN(CC)CCCOc1cc2nc(N3CCCN(C)CC3)nc(NC3CCN(C)CC3)c2cc1OC | – | 0.052 µM | –
9 | CCCN(C)CCCOc1cc2nc(N3CCCN(C)CC3)nc(NC3CCN(C)CC3)c2cc1OC | – | 0.051 µM | –
10 | COc1cc2c(NC3CCN(C)CC3)nc(N3CCCN(C)CC3)nc2cc1OCCCN1CCOCC1 | 0.78 µM | 0.88 µM | –
11 | COc1cc2c(NC3CCN(C)CC3)nc(N3CCCN(C)CC3)nc2cc1OCCCCNC(=O)OC(C)(C)C | > 10 µM | – | –
12 | COc1cc2c(NC3CCN(C)CC3)nc(N3CCCN(C)CC3)nc2cc1OCCCCCN | 0.11 µM | 0.235 µM | –
13 | COc1cc2c(NC3CCN(C)CC3)nc(N3CCCN(C)CC3)nc2cc1OCCCCC(N)=O | > 10 µM | – | –
14 | COc1cc2c(NC3CCN(C)CC3)nc(N3CCCN(C)CC3)nc2cc1OCCOCCN(C)C | 0.006 µM | – | IC50 [3]: > 40 µM; IC50 [4]: > 40 µM; IC50 [5]: 0.023 µM; IC50 [6]: > 57 µM; IC50 [7]: 0.015 µM; IC50 [8]: > 40 µM
15 | COc1cc2c(NC3CCN(C)CC3)nc(N3CCCN(C)CC3)nc2cc1OCCOCCN1CCCC1 | 0.11 µM | 0.057 µM | –
16 | COc1cc2c(NC3CCN(C)CC3)nc(N3CCCN(C)CC3)nc2cc1OCCN(C)CCN(C)C | 0.173 µM | 0.345 µM | –
17 | COc1cc2c(NC3CCN(C)CC3)nc(N3CCCN(C)CC3)nc2cc1OCC1CCCNC1 (centres undefined) | 5.1 µM | 1.5 µM | –
18 | COc1cc2nc(N3CCCN(C)CC3)nc(N(C)C3CCN(C)CC3)c2cc1OC | > 10 µM | – | –
19 | COc1cc2c(NC3CCN(C)CC3)nc(N3CCCN(C)CC3)nc2cc1OCCCN(C)C | – | – | IC50 [3]: > 40 µM; IC50 [4]: > 40 µM; IC50 [6]: > 57 µM; IC50 [8]: > 40 µM

Reference: ChEMBL document CHEMBL1212833, “Protein lysine methyltransferase G9a inhibitors: design, synthesis, and structure activity relationships of 2,4-diamino-7-aminoalkoxy-quinazolines” (J Med Chem, 2010)
